Assays:
[1] = predicted hepatic clearance; assay type: in vitro ADME, cyno
Source text: Across species, 19d had acceptable fraction unbound in both plasma (fu (plasma): 0.03 (human), 0.041 (rat), 0.025 (cyno), 0.039 (dog) and 0.056 (mouse)) and brain (fu (brain): 0.034 (rat) and 0.081 (mouse)).

[2] = target: T1, P-gp (MDR1) (Homo sapiens, UniProt P08183); test: MDCK-MDR1 permeability/efflux; assay type: in vitro ADME; conditions: human
T1 construct: expressed in transfected cells; host or cells: MDCK-MDR1
T1 sequence (P08183 whole entry): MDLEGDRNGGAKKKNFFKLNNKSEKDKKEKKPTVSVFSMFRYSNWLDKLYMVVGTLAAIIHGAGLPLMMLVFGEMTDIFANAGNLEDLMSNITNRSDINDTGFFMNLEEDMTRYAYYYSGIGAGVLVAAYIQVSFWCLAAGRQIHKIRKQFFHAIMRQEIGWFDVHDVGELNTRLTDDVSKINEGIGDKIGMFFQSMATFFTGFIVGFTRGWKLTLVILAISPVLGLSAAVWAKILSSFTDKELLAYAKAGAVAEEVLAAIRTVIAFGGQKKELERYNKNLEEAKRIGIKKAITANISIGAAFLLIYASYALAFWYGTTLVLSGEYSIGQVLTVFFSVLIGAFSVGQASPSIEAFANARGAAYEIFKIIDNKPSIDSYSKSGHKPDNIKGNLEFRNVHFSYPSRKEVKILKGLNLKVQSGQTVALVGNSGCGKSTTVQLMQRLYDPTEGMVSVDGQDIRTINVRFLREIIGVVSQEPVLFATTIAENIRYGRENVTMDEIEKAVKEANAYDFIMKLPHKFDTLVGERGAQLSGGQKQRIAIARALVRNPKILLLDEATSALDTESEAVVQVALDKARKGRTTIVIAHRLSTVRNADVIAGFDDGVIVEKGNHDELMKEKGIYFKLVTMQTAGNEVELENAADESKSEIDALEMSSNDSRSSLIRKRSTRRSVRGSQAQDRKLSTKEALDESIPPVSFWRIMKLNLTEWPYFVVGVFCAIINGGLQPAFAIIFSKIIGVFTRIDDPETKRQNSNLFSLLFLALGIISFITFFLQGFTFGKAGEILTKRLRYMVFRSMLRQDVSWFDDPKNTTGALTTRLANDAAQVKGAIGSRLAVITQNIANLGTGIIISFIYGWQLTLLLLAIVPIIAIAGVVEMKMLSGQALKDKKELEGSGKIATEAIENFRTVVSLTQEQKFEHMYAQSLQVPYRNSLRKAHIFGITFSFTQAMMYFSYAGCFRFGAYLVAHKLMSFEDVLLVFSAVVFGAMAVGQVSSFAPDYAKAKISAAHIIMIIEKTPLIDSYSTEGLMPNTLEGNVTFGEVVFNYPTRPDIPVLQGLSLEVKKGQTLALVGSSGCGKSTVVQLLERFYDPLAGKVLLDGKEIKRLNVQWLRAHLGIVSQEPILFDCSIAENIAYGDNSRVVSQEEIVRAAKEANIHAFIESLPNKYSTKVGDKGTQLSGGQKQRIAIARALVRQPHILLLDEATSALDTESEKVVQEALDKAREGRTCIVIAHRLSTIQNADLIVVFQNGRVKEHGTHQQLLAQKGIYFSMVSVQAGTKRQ

[3] = target: T2, human P-gp (Homo sapiens, UniProt P08183); test: MDCK-MDR1 permeability/efflux; assay type: in vitro ADME
T2 construct: expressed in transfected cells; host or cells: MDCK-MDR1
T2 sequence (P08183 whole entry): as above

[4] = target: T3, 1A2 (Homo sapiens, UniProt P05177); test: inhibition of cytochrome P450 enzymes; assay type: in vitro ADME; conditions: human liver microsomes; read-out: CYP450 1A2 inhibition
T3 construct: 0.1 mg/mL human liver microsomes (HLM) and Substrate Mix; from tissue; host or cells: human liver microsomes
T3 sequence (P05177 whole entry): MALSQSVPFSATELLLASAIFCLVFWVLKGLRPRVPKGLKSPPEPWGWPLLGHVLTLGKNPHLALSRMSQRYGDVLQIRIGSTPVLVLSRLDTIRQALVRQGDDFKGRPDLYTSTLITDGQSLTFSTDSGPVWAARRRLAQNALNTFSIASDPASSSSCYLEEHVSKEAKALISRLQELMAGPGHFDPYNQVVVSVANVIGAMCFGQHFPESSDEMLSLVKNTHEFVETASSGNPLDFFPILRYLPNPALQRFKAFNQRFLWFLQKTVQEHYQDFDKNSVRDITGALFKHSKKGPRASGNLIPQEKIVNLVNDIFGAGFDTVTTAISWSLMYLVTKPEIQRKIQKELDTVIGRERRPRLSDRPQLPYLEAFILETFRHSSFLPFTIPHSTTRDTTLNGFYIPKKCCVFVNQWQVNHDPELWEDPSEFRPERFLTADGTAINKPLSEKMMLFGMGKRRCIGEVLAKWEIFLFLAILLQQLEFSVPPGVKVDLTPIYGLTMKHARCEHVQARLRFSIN
Protocol: (§1) A cocktail of substrates for cytochrome P450 enzymes (1A2: Phenacetin, 10 μM; 2C9: Diclofenac, 5 μM; 2D6: Dextromethorphan, 5 μM; 3A4: Midazolam, 2 μM) were mixed for cocktail analysis. For P450 2C19, the substrate stock (Mephenytoin, 40 μM)and substrate mix were prepared separately for discrete analysis. The positive control for pan-P450 inhibition (miconazole) was included alongside each test compound in analysis.
(§2) A reaction mixture of 100 mM Kpi, pH 7.4, 0.1 mg/mL human liver microsomes (HLM) and Substrate Mix is prepared and aliquoted into a 96-deepwell block. Test compound and positive control (in duplicate) were then added such that the final concentration of test compound ranged from 0.1–30 μM. The plate was vortexed briefly and then preincubated at 37 °C while shaking for 15 min. The reaction was initiated with the addition of NADPH (1 mM final concentration). The incubation continued for 8 min and the reaction quenched by 2x volume of cold acetonitrile containing internal standard (50 nM carbamazepine). The plate was centrifuged for 10 min (4000 rcf, 4 °C) and the resulting supernatant diluted 1:1 with water for LC/MS/MS analysis. A 12 point standard curve of substrate metabolites over the range of 0.98 nM to 2000 nM.
(§3) Samples were analyzed via electrospray ionization (ESI) on an AB Sciex API-4000 (Foster City, CA) triple-quadrupole instrument that was coupled with Shimadzu LC-10AD pumps (Columbia, MD) and a Leap Technologies CTC PAL autosampler (Carrboro, NC). Analytes were separated by gradient elution using a Fortis C18 3.0 × 50 mm, 3 μm column (Fortis Technologies Ltd., Cheshire, UK) thermostated at 40 °C. […]
(§4) The IC50 values for each compound were obtained for the individual CYP enzymes by quantitating the inhibition of metabolite formation for each probe substrate. A 0 μM compound condition (or control) was set to 100% enzymatic activity and the effect of increasing test compound concentrations on enzymatic activity could then be calculated from the % of control activity. […]

[5] = target: T4, 2C9 (Homo sapiens, UniProt P11712); test: inhibition of cytochrome P450 enzymes; assay type: in vitro ADME; conditions: human liver microsomes; read-out: CYP450 2C9 inhibition
T4 construct: 0.1 mg/mL human liver microsomes (HLM) and Substrate Mix; from tissue; host or cells: human liver microsomes
T4 sequence (P11712 whole entry): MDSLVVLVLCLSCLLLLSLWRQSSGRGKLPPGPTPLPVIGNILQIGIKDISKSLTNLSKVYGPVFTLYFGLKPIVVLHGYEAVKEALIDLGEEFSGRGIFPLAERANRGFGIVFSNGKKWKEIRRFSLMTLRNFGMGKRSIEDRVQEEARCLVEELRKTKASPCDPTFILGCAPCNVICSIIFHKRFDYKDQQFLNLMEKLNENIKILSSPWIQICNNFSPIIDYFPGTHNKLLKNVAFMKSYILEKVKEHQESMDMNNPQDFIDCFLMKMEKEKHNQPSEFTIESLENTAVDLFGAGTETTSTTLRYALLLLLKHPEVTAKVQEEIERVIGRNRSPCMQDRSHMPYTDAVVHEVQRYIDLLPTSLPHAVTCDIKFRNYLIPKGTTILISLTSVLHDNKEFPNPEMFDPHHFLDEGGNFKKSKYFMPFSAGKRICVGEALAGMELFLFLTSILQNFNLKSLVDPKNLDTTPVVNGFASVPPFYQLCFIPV
Protocol: as §1, §2, §3, §4

[6] = target: T5, 2D6 (Homo sapiens, UniProt P10635); test: inhibition of cytochrome P450 enzymes; assay type: in vitro ADME; conditions: human liver microsomes; read-out: CYP450 2D6 inhibition
T5 construct: 0.1 mg/mL human liver microsomes (HLM) and Substrate Mix; from tissue; host or cells: human liver microsomes
T5 sequence (P10635 whole entry): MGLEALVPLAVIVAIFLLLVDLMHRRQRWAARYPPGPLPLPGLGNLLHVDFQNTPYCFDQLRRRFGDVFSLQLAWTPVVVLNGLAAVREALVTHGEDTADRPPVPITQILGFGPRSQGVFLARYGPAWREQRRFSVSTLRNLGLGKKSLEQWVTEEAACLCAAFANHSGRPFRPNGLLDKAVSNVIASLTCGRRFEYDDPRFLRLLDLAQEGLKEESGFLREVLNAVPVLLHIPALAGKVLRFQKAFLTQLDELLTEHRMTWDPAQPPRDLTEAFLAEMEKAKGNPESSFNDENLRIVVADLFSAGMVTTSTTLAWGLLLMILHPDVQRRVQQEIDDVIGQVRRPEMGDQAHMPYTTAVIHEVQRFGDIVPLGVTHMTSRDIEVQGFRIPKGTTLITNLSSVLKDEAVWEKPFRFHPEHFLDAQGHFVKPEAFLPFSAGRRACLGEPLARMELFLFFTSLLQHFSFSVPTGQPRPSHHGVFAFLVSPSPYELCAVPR
Protocol: as §1, §2, §3, §4

[7] = test system: Sprague–Dawley rats; test: spontaneous locomotion; assay type: in vivo; conditions: rat, doses up to 10 mg/kg p.o.
Protocol: In order to enable our target validation work, we first profiled PAM 19d in a rat locomotor battery to ensure that pharmacodynamic efficacy was not mistaken for gross effects on locomotion.[20] […] PK was performed in parallel to establish a PK/PD relationship.[24]
Adult male Sprague–Dawley rats were administered VU6024578 (1–10 mg/kg p.o.) or vehicle and were tested in the […]. Seventy minutes later the animals were placed into the activity chambers (Med Associates) for 30 min.

[8] = satellite PK for NOR; assay type: in vivo; conditions: brain, rat, 210 min postdose
Source text: Based on our previous work with the mGlu1 PAM 4,[6]−[9],[14]−[19] we first evaluated the ability of 19d to reverse MK-801 disruptions of novel object recognition (NOR) in rats (Figure 6).

[9] = test system: Sprague–Dawley rats; test: amphetamine-induced hyperlocomotion (rat); assay type: in vivo
Protocol: Here, administration of 0.75 mg/kg IP of amphetamine induced a robust hyperlocomotive state in rats (>1200 beam breaks), which was dose-dependently reversed by oral administration of 19d. […] Considering the longer time point for exposure and the results, mGlu1 has sufficient target coverage and PK/PD is established for this paradigm.[24]
Figure 7 Rat amphetamine-induced hyperlocomotion and reversal by VU6024578 (19d). Amphetamine (0.75 mg/kg IP) induced robust hyperlocomotion, which was dose-dependently reversed by oral administration (10% tween 80) of 19d. TEXT PRINTED IN THE PICTURE: VU6024578: Mean % reversal: -0.2 ± 13.0 (1 mg/kg p.o. + Amphetamine 0.75 mg/kg s.c.); Mean % reversal: 31.6 ± 10.2 (3 mg/kg p.o. + Amphetamine 0.75 mg/kg s.c.); Mean % reversal: 31.4 ± 4.3 (5.6 mg/kg p.o. + Amphetamine 0.75 mg/kg s.c.); Mean % reversal: 41.8 ± 7.1 (10 mg/kg p.o. + Amphetamine 0.75 mg/kg s.c.)
Adult male Sprague–Dawley rats placed into the activity chambers (Med Associates). Thirty minutes after placement in the chambers, the rats were administered VU6024578 (1–10 mg/kg p.o.) or vehicle. Sixty minutes later the rats were injected with amphetamine (0.75 mg/kg s.c. One ml/kg) or vehicle (saline) and placed back in the activity chambers for 90 min. The data for the studies were analyzed by a between-group 2 way analysis of variance for compound dose and time. Each dose group was compared with the vehicle control group. The calculations were performed and graphed using GraphPad Prism (version 4.03, GraphPad, La Jolla, CA). The AUC was analyzed by a 1-way ANOVA with a Dunnett’s post hoc test.

Which “CLhep, cyno” value [1] does the source give for `Cn1nc(-c2ccnn2C)cc1CNC(=O)c1cc(-c2ccco2)ccc1Cl` [Compound 19d, 2-Chloro-N-((1,2′-dimethyl-1H,2’H-[3,3′-bipyrazol]-5-yl)methyl)-5-(furan-2-yl)benzamide] here?
The value was 31 mL/min/kg.

And the Papp [2]?
Its Papp is 73 ×10⁻⁶ cm/s.

What about the “human P-gp substrate, in words” value [3] of the same compound?
The value was “not a human P-gp substrate”.

And the IC50 [4]?
Its IC50 is 17 µM.

What about the IC50 [5] of the same compound?
The IC50 was 6.4 µM.

What about the IC50 [6] of the same compound?
Its IC50 is 28 µM.

And the spontaneous locomotion [7]?
The spontaneous locomotion was “lack of effect”.

What about the concentration at 210 min ([8]; 10 mg/kg PO, read-out: free brain concentration) of the same compound?
The concentration at 210 min was 73 nM.

What about the Kp at 3.5 h ([8]; PO) of the same compound?
The Kp at 3.5 h was 0.34.

What about the “Mean % reversal of AHL” value ([9]; 1 mg/kg p.o.) of the same compound?
Its value is -0.2 ± 13.0%.

And the “Mean % reversal of AHL” value ([9]; 3 mg/kg p.o.)?
Its value is 31.6 ± 10.2%.

And the “Mean % reversal of AHL” value ([9]; 5.6 mg/kg p.o.)?
Its value is 31.4 ± 4.3%.

And the “Mean % reversal of AHL” value ([9]; 10 mg/kg p.o.)?
The value was 41.8 ± 7.1%.

And the “minimum effective dose (MED), AHL” value ([9]; p.o.)?
The value was 3 mg/kg.

From PMC11684029, “Discovery of VU6024578/BI02982816: An mGlu1 Positive Allosteric Modulator with Efficacy in Preclinical Antipsychotic and Cognition Models” (Journal of Medicinal Chemistry, 2024)
